Experimental findings from patent US20260185980A1, “METHOD OF PREVENTING AND/OR REDUCING METASTASIS OF TUMOR CELLS, PREVENTING OR REDUCING SENESCENCE, INHIBITING DIFFERENTIATION AND OF REDUCING INFLAMMATION” (Albert-Ludwigs-Universitaet, priority 2022, published 2026) are described below.

The target in assay [1] is T1, caspase-activated CAD (Homo sapiens, UniProt O76075).
T1 construct: endogenous in cells; host or cells: HeLa229-CTRL3 cells (LentiCRISPRV2_puro with non-targeted gRNA)
T1 sequence (O76075 1-338): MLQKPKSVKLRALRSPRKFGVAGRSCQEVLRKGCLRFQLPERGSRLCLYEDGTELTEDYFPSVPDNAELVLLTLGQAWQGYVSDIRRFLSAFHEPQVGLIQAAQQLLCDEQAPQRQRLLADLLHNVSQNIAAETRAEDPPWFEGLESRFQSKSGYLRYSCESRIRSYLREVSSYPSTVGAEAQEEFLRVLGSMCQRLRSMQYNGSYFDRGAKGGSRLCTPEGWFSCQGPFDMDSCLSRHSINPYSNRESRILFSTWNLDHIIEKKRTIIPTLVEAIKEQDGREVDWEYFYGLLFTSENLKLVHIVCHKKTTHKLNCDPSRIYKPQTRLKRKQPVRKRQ
As to the kind of experiment: Assay B: Inhibition of caspase-activated CAD (ABT-737 plus S63845, γH2AX). The assay is classed as cell-based. The note with it: HeLa229-CTRL3 cells, compound pre-treatment 1 hour, ABT-737 50 nM plus S63845 250 nM 2.5 hours. As to the method:
FIG. 12 Activity of compounds against caspase-activated CAD A, HeLa229-CTRL3 cells (transduced with a LentiCRISPRV2_puro virus encoding a non-targeted gRNA) or Hela229 cells transduced with a CAD-targeted LentiCrisprV2 virus (resulting in CAD-deficient cells (CAD KO)) were seeded as described in FIG. 11 and stimulated with […] ABT-737 [50 nM] plus S63845 [250 nM] for 2.5 hours the next day. Subsequent analysis of the cells was performed as described in FIG. 11.
FIG. 12B, HeLa229-CTRL3 cells were seeded as in A and pre-treated (or not) with the indicated compounds and concentrations (Comp) for 1 hour, followed by treatment with ABT-737 plus […] for 2.5 hours. Proteins were detected as described in FIG. 11.
While in the screening we activated CAD with auxin-induced degradation of its inhibitor, CAD is physiologically activated by caspases. […] Test compounds were added 1 h previously. The activity of CAD was measured by the DDR as above (γH2AX). […] The compounds that will be used to inhibit CAD are shown in boxes. Such preferred compounds are: CBN16; CBN17; CBN62; CBN65; CBN66; CBN68; MB4; CD9; CD22 and MB26.

The target in assay [2] is T2, CAD (Homo sapiens, UniProt O76075).
T2 construct: endogenous in cells; host or cells: HeLa229-Tir1-iCAD-mAID-GFP cells
T2 sequence (O76075 1-338): T1 sequence (O76075 1-338)
Kind of assay: Assay A: Inhibition of the CAD-dependent DNA-damage response (DDR), γH2AX Western blot. It is filed as cell-based. The note with it: HeLa229-Tir1-iCAD-mAID-GFP cells, compound 10 μM pre-incubated 1 hour, auxin 5 μM 4 hours. As to the method: Cells were seeded, pre-incubated with the individual compounds and treated with auxin. The DDR (a consequence of CAD-activity) was measured by Western blotting for the marker γH2AX. […] Such preferred compounds are: MB4, MB26; MB33; MB37; CBN16; CBN17; CBN40; CBN62; CBN65; CBN66; CBN68; CD9 and CD22.
FIG. 11 Confirmation of CAD-inhibition: auxin-dependent DDR. HeLa229-Tir1-iCAD-mAID-GFP cells were seeded on a 48-well plate (50,000 cells/well). 24 hours later, cells were pre-incubated (or not) with the indicated compounds (Comp, 10 μM) for 1 hour, followed by auxin treatment [5 μM] for 4 hours. Cells were lysed in Laemmli buffer and lysates were loaded onto SDS-PAGE followed by Western blotting against the indicated proteins. The DNA damage marker γH2AX was used as an indicator of CAD activity. The two left lanes of each gel are negative and positive controls (without and with auxin but without compound; instead, DMSO was used as solvent control). Compounds are indicated at the top.

In assay [3] the test system is HeLa cells. As to the kind of experiment: Chromosomal missegregation (CIN) and micronuclei in cancer cells. To be noted: cells incubated for one day with caspase-inhibitor. The assay is classed as cell-based, human. An excerpt: A, the various pictures of chromosomal missegregation/misalignment are shown as examples (left) and enumerated in HeLa cells (cervical carcinoma line; ctrl., control; CAD, lacking CAD; STING, lacking STING; STING is not relevant to this invention).
C, missegregation in HeLa cells with inhibition in the mitochondrial apoptosis apparatus. Symbols as in A. zVAD-fmk is a small molecule pan-caspase-inhibitor. Apaf-1 is an adapter protein of caspase-9 that is required for caspase-activation upon release of cytochrome c from mitochondria. Both Bax and Bak can directly release cytochrome c, and the presence of at least one of them is required for mitochondrial apoptosis. Bcl-XL is a mitochondrial protein that blocks the activation and activity of Bax and Bak and thereby inhibits apoptosis. […]
Metastasis is linked in the literature to chromosomal instability (CIN), most likely because DNA-ligands are generated that stimulate the cells. […] This is clear because cancer cells modified to lack CAD or components of the (CAD-activating) mitochondrial apoptosis apparatus, or where apoptosis signaling was blocked using a chemical caspase inhibitor (zVAD-fmk), all show reduced CIN (measured as chromosomal missegregation, for instance as chromatin-bridges in dividing cells) and numbers of MN (FIG. 1). […]

In assay [4] the test system is cancer cells. As to the kind of experiment: Aggressive cancer growth in vitro (migration, invasion through a basement membrane, colony formation on soft agar). The assay is classed as cell-based. The note with it: caspase-inhibition by the pan-caspase-inhibitor. An excerpt:
A, migratory activity of cells with or without CAD (scratch assay). Percentages of the area closed upon scratch are given. In this assay, a monolayer of cells is mechanically scratched, and the cells migrate back to fill the gap. The speed with which they migrate is a measure of their migratory capacity.
B-D invasion through a basement membrane (number of cells are given that had invaded).
E, colony formation in soft agar (number of colonies). The invasion assay uses a basement membrane in a culture dish. The cells are seeded on top of the membrane, and after a predetermined time (here: 24 h), the number of cells at the bottom of the membrane is determined. This is a measure of the capacity of the cells to invade tissue. Colony formation measures a capacity also termed ‘anchorage-independent growth’. It is a particular capacity of metastatic cells to be able to grow to colonies without support from other cells of solid support (as in a plastic dish). Individual cells are seeded in soft agar to immobilize them and to test whether the single cells can grow and form colonies, a feature of metastatic cells. The number of colonies formed is then measured.
The cell lines and conditions were described in the legend to FIG. 1. zVAD, caspase-inhibitor zVAD-fmk. Ctrl., control cells; the other cell lines are labelled according to their genetic modification (gene deletion; Bcl-XL-overexpression). […]

Peptide text beside a SMILES is read from it. * marks the point of attachment. Cbz = O=C(OCc1ccccc1)*; CH2F = FC*

With `O=C1/C(=C/c2ccccn2)N2CCC1CC2` [CBN16, (2Z)-2-(pyridin-2-ylmethylidene)-1-azabicyclo[2.2.2]octan-3-one], in assay [1], the “CAD-inhibitory activity against caspase-activated CAD (γH2AX)” value (shortened to “CAD-inhibitory activity … (γH2AX)”) is “CAD-inhibitory activity”. Besides, in assay [2], the “Inhibition of auxin-dependent DDR (γH2AX)” value (shortened to “Inhibition”) is reported as “blocked the DDR”.

As for `COC(=O)C[C@H](NC(=O)[C@H](C)NC(=O)[C@@H](NC(=O)OCc1ccccc1)C(C)C)C(=O)CF` [zVAD-fmk] (Cbz-Val-Ala-Asp(OMe)-CH2F), in assay [3], the “CIN (chromosomal missegregation)” value is given as “reduced CIN” and the “numbers of MN (micronuclei)” value is on record as “reduced”. In assay [4], the “aggressive growth in vitro (migration, invasion, colony formation)” value is given as “less aggressive growth”. Consider `O=c1c(Cl)c(Cl)cnn1-c1ccccc1` [CD22, 4,5-dichloro-2-phenylpyridazin-3-one], for which, in assay [1], the “CAD-inhibitory activity … (γH2AX)” value is recorded as “CAD-inhibitory activity”. In assay [2], the “Inhibition” value is on record as “blocked the DDR”. The matching figures for `Clc1ncnc2c1C(c1ccc(Br)cc1)c1c(Cl)ncnc1O2` [CD9, 9-(4-bromophenyl)-7,11-dichloro-2-oxa-4,6,12,14-tetrazatricyclo[8.4.0.0^3,8] tetradeca-1(10),3(8),4,6,11,13-hexaene]: “CAD-inhibitory activity” and “blocked the DDR”.

For `COc1cc(/C=C2/CCC/C(=C\c3ccc(O)c(OC)c3)C2=O)ccc1O` [CBN40, (2E,6Z)-2,6-bis[(4-hydroxy-3-methoxyphenyl)methylidene]cyclo-hexan-1-one], the “Inhibition” value in assay [2] is “blocked the DDR”.

In the case of `Cc1ccc(Sc2ccc([N+](=O)[O-])c3nonc23)cc1` [MB26, 4-(4-methylphenyl)sulfanyl-7-nitro-2,1,3-benzoxadiazole], the “CAD-inhibitory activity … (γH2AX)” value in assay [1] is recorded as “CAD-inhibitory activity”. In addition, the “Inhibition” value in assay [2] is “blocked the DDR”. The matching figures for `Cc1nn(Cc2ccc(Cl)c(Cl)c2)c(C)c1NC(=O)CCCS(=O)(=O)c1nc(-c2cccs2)cc(C(F)(F)F)n1` [CBN68, N-[1-[(3,4-dichlorophenyl)methyl]-3,5-dimethylpyrazol-4-yl]-4-[4-thiophen-2-yl-6-(trifluoromethyl)pyrimidin-2-yl]sulfonylbutanamide]: “CAD-inhibitory activity” and “blocked the DDR”.

Take `COc1cc(/C=C2\CCc3ccccc3C2=O)cc(OC)c1` [MB37, (2E)-2-[(3,5-dimethoxyphenyl)methylidene]-3,4-dihydronaphthalen-1-one]: the “Inhibition” value in assay [2] was “blocked the DDR”.

Take `CC(=O)Nc1nc([N+](=O)[O-])n(-c2ccccc2)n1` [CBN17, N-(5-nitro-1-phenyl-1,2,4-triazol-3-yl)acetamide]: the “CAD-inhibitory activity … (γH2AX)” value in assay [1] is “CAD-inhibitory activity”. Besides, the “Inhibition” value in assay [2] is given as “blocked the DDR”.

Regarding `O=C(Cn1ncc(Cl)c(Cl)c1=O)Nc1ccc(N2CCCC2)cc1` [CBN62, 2-(4,5-dichloro-6-oxopyridazin-1-yl)-N-(4-pyrrolidin-1-ylphenyl)acetamide], in assay [1], the “CAD-inhibitory activity … (γH2AX)” value was “CAD-inhibitory activity”. Also, the “Inhibition” value in assay [2] is “blocked the DDR”.

Turning to `O=[N+]([O-])c1ccc(C=Nc2cc(C(F)(F)F)ccc2N2CCOCC2)s1` [MB4, N-[2-morpholin-4-yl-5-(trifluoromethyl)phenyl]-1-(5-nitrothiophen-2-yl)methanimine], the “CAD-inhibitory activity … (γH2AX)” value in assay [1] was “CAD-inhibitory activity”. For the same compound, the “Inhibition” value in assay [2] was “blocked the DDR”. Regarding `COc1cc(/C=C2\CCc3ccccc3C2=O)cc(OC)c1OC` [MB33, (2E)-2-[(3,4,5-trimethoxyphenyl)methylidene]-3,4-dihydronaphthalen-1-one], the “Inhibition” value in assay [2] is “blocked the DDR”. Take `O=C1NC(=S)NC(=O)C1=Cc1c2ccccc2cc2ccccc12` [CBN65, 5-(anthracen-9-ylmethylidene)-2-sulfanylidene-1,3-diazinane-4,6-dione]: the “CAD-inhibitory activity … (γH2AX)” value in assay [1] was “CAD-inhibitory activity”. In addition, the “Inhibition” value in assay [2] is “blocked the DDR”.
